The term viability denotes a read-out of living cells in per cent, often relative to untreated cells.

The data set can be described thus: in vitro. To be noted: human, hela cells, % viability.

For the molecule `O=C(c1cscn1)N1CCCC(n2cnc3cc(F)ccc32)C1` (centres unmarked) [CBK284477], the viability at 28.5 h, 10 µM came to 90.8%.

As for `C=C(C)CN1CCN(C(=O)c2ccnc3ccc(Cl)cc23)CC1` [CBK282617], the viability at 28.5 h, 10 µM was determined as 111%. On the same count and under the same terms, next, `Cc1ccc(C(=O)N2Cc3ccccc3C2)cn1` [CBK200318]: 94.9%; `COCCNC(=O)Cn1c(-c2cccs2)cc2cccnc21` [CBK282554]: 109%; `O=C(Cn1c(NCCO)nc2ccccc21)c1ccco1` [CBK264127B]: 96.3%. `O=S(=O)(Nc1ccc2[nH]ccc2c1)c1cc(C(F)(F)F)cc(C(F)(F)F)c1` [CBK156330]: the viability at 28.5 h, 10 µM stood at 102%. `Cc1ccsc1CCNC(=O)C1(Oc2cccnc2C)CCNCC1` [CBK307374]: the viability at 28.5 h, 10 µM came out at 84.2%. Same read-out and setting: next, `CSc1ncc(CNC(=O)CC2CCc3ccccc32)n1C` (centres unmarked) [CBK307450]: 85.9%; `NCCn1cc(C(=O)N2Cc3cnn(Cc4ccc(F)cc4)c3C2)nn1` [CBK307461]: 107%.

Turning to `O=C(NCc1c(O)c(Cl)cc(Cl)c1Cl)c1ccccc1` [CBK260920], the viability at 28.5 h, 10 µM came out at 94.2%. In the case of `COc1ccc(C(C)C)cc1-c1cn2ccnc2c(NCc2ccco2)n1` [CBK037269], the viability at 28.5 h, 10 µM was 98.2%. On the same count and under the same terms, next, `COc1ccccc1NC(=O)CN(c1ccc(C)cc1)S(=O)(=O)c1ccc(F)cc1` [CBK262718]: 91.2%. As to `COc1ccc(OCC(=O)Nc2cc3oc4ccccc4c3cc2OC)cc1` [CBK262608], the viability at 28.5 h, 10 µM is 88.5%. The same measure, in the same setting: next, `CCNc1nc2ccccn2c(=O)c1C=C1SC(=S)N(CCCC(=O)O)C1=O` [CBK296757]: 87.9%; `Cc1oc2ccc(O)cc2c1C(=O)N(C)CCOc1ccccc1` [CBK282696]: 111%; `C[C@H](c1ccccc1)n1c(=O)[nH]c2ncc(-c3ccc(C(=O)N4CCN(C)CC4)cc3)nc21` [CBK064559]: 101%. Regarding `CC(C)c1cc(C(=O)N(Cc2ccccn2)CC2CCCO2)on1` (centres unmarked) [CBK306579], the viability at 28.5 h, 10 µM was determined as 95.3%.

Regarding `CC(Oc1cccc2ccccc12)C(=O)NN` (centres unmarked) [CBK261209], the viability at 28.5 h, 10 µM is 112%. The same measure, in the same setting: next, `CCC(Oc1ccc(C)cc1)C(=O)Nc1ccc(S(N)(=O)=O)cc1` (centres unmarked) [CBK270036]: 90.5%. In the case of `CCOC(=O)N1CCC2(CC1)Oc1ccc(-c3cc(OC)c(OC)c(OC)c3)cc1O2` [CBK090282], the viability at 28.5 h, 10 µM (bulk resorufin, single well) is 90.9%.

Regarding `O=C(CC1SC(=O)NC1=O)Nc1ccccc1O` (centres unmarked) [CBK057932], the viability at 28.5 h, 10 µM came to 98.5%. Consider `COCC1CN(S(=O)(=O)c2cnc3ccsc3c2)C1` [CBK304768], for which the viability at 28.5 h, 10 µM stood at 72.4%. On the same count and under the same terms, next, `CN1C[C@@H](NS(=O)(=O)c2ccc(C#N)cc2)C[C@H]1c1nc(-c2ccncc2)no1` [CBK288871]: 86.9%; `COc1ccccc1CC(=O)N1CCC(Cc2cccc(-c3cccs3)c2)(C(N)=O)CC1` [CBK285743]: 93.3%. With `Cc1ccccc1-c1ccccc1CC1(C(=O)N(C)C)CCN(C(=O)CC(C)C)CC1` [CBK285714], the viability at 28.5 h, 10 µM was 93.6%. With `Cc1nnnn1-c1cc(NC(=O)NCCN2CCOCC2)ccc1F` [CBK306246], the viability at 28.5 h, 10 µM is 89.2%. The same measure, in the same setting: next, `Cc1ccc(SCCNS(=O)(=O)c2cccc([N+](=O)[O-])c2)cc1` [CBK267508]: 81.4%; `O=C(c1ccccc1)c1ccc(S(=O)(=O)N2CCCN(Cc3c[nH]nc3-c3ccccc3)CC2)cc1` [CBK062773]: 85.1%; `CCc1ccc(C2CC(=O)c3c(ccc4ccccc34)N2)cc1` (centres unmarked) [CBK098787]: 93.8%. For `COc1cc(/C=C2/NC(=O)N(c3ccccc3)C2=O)ccc1OCc1ccc(C(=O)O)cc1` [CBK265139], the viability at 28.5 h, 10 µM is 84.6%. Turning to `CC(C)(C)OC(=O)N1CCN(c2ccc([N+](=O)[O-])cn2)CC1` [CBK000134], the viability at 28.5 h, 10 µM turned out to be 95.6%. Regarding `COc1ccc(Br)cc1S(=O)(=O)NCCCN1CCOCC1` [CBK264050], the viability at 28.5 h, 10 µM was found to be 103%. On the same count and under the same terms, next, `COCCn1nnnc1C(c1cc2cc(C)ccc2[nH]c1=O)N1CCN(C(=O)c2ccco2)CC1` (centres unmarked) [CBK111562]: 80.3%; `Cc1ccc(-c2csc3ncn4nnnc4c23)cc1` [CBK019710]: 92.5%; `CC(C)n1nnnc1-c1ccccc1NS(=O)(=O)C1CC1` [CBK305509]: 97.7%. On the same count and under the same terms, next, `CCCCn1c(SCc2nc(-c3ccncc3)no2)nc2ccsc2c1=O` [CBK288576]: 87%; `O=c1[nH]c2c(c(=O)[nH]1)[C@H]1[C@H](O)[C@H](O)C[C@H]1[C@@H](c1ccccc1)N2` [CBK303239]: 88.1%. On the same count and under the same terms, next, `O=C(CN(Cc1ccccc1Cl)S(=O)(=O)c1ccc(Cl)cc1)NC1CCCCC1` [CBK264659]: 97.5%; `COc1cc(/C=N/NC(N)=O)ccc1OC(=O)c1sc2ccccc2c1Cl` [CBK262265]: 85%. `C#CCNC(=O)[C@H]1O[C@H](CCN2CCCCC2)CC[C@@H]1O` [CBK288728]: the viability at 28.5 h, 10 µM was 101%. As to `O=C(NCCCc1ccc(F)cc1)c1cccc(-n2cnnc2)c1` [CBK282713], the viability at 28.5 h, 10 µM was determined as 102%.

Turning to `COC[C@H](C)Nc1ccc(C(=O)N2CCC(N3CCOCC3)CC2)cn1` [CBK306917], the viability at 28.5 h, 10 µM was 84.8%. In the case of `Cc1ccc(C2CC(=O)C(=CNCCN3CCN(C(=S)Nc4ccccc4)CC3)C(=O)C2)cc1` (centres unmarked) [CBK263665], the viability at 28.5 h, 10 µM worked out at 96.3%.

As to `O=C(COC(=O)c1ccc2c(c1)C(=O)N(c1ccc(Oc3ccccc3)cc1)C2=O)c1ccc(Br)cc1` [CBK261607], the viability at 28.5 h, 10 µM is 105%.

For the molecule `O=[N+]([O-])c1cccc(/C=N/Nc2nc(-c3ccccc3)cc(-c3ccccc3O)n2)c1` [CBK261722], the viability at 28.5 h, 10 µM was determined as 95.8%. In the case of `CSCCC(=O)Nc1ccc2c(ccn2Cc2ccccc2)c1` [CBK159732], the viability at 28.5 h, 10 µM turned out to be 69.4%. Still for that read-out and setting: next, `COc1ccc([C@@]23CCN(C(=O)Nc4ccc(F)c(F)c4F)C[C@@H]2CN(C)C3)cc1OC` [CBK074305T]: 106%; `O=C(CNCc1ccc2c(c1)OCO2)NCc1ccc2c(c1)OCO2` [CBK074763]: 86.8%. On the same count and under the same terms, next, `COc1ccc(OCCN2CCc3ccccc3C2)cc1` [CBK126403]: 94.8%; `Clc1cc(CSc2nnnn2-c2ccccc2)cc2c1OCCCO2` [CBK297159]: 92.5%. As to `CC(C)(C)OC(=O)N1CCC2(CC1)OCc1cc(-c3cccc(C(=O)NCc4ccc(Cl)cc4)c3)ccc1O2` [CBK107834], the viability at 28.5 h, 10 µM (bulk resorufin, single well) worked out at 93.3%. For `Cc1ccc(S(=O)(=O)CC(=O)Nc2ncccn2)cc1` [CBK269800], the viability at 28.5 h, 10 µM is 97.3%.

As to `COc1cccc(CNC23CC4CC(CC(C4)C2)C3)c1OCc1ccccc1` [CBK268873C], the viability at 28.5 h, 10 µM stood at 92%. For the molecule `CN(C)CCN(C)c1cncc(-c2cccc(N(C)C)c2)n1` [CBK065659], the viability at 28.5 h, 10 µM was 100%. Take `Cc1cc(C)n(CC2CCCN2C(=O)CCCc2ccccn2)n1` (centres unmarked) [CBK305920]: the viability at 28.5 h, 10 µM stood at 105%.

Take `O=C(NCCc1c[nH]c2ccccc12)c1cc2c(ccc3ccccc32)oc1=O` [CBK264550]: the viability at 28.5 h, 10 µM worked out at 91.5%.

(Values after article PMC12040169 (PLOS Biology, 2025).)
